Data reported in patent US6699883B1, “Pyrroloimidazole derivatives and their use as medicaments” (Morphochem AG, priority 1999, dated 2004).

Tests used:
Assay type in all cases: cell-based
[1] = system: A549; test: Assay 1: cell growth by acid phosphatase activity; conditions: Homo sapiens; for GI50: A549, acid phosphatase, substance 0.1-100 μM, 48 h and 96 h, read-out: Cell proliferation GI50: A549; for inhibition at up to 100 µM: A549, printed beside GI50 >100 μM, concentration not given, read-out: Cell proliferation: A549, % inhibition
Protocol: (§1) Assay 1 Measurement of cell growth by determination of the activity of the intracellular enzyme acid phosphatase. The added substrate p-nitrophenyl phosphate is converted by acid phosphatase into p-nitrophenol, which absorbs light at 405 nm, the intensity of the yellow coloration being proportional to the number of cells. Incubation of the cell lines HEPG-2 and A549 together with the substance (0.1-100 μM) was carried out for 48 h and 96 h at 37° C. and 5% CO2.

[2] = system: HepG2; test: Assay 1: cell growth by acid phosphatase activity; conditions: Homo sapiens; for GI50: HepG2, acid phosphatase, substance 0.1-100 μM, 48 h and 96 h, read-out: Cell proliferation GI50: HepG2; for inhibition at up to 100 µM: HepG2, printed beside GI50 >100 μM, concentration not given, read-out: Cell proliferation: HepG2, % inhibition
Protocol: as §1

[3] = system: Staph. aureus; test: Inhibition test (microdilution assay), inhibition of bacterial growth; conditions: Staphylococcus aureus; for inhibition at 100 µM: c = 100 μM
Protocol: (§2) Inhibition Test Culture media used: Müller-Hinton broth Caso agar plates Test method: Microdilution assay The test organisms are cultured overnight in […]-Honton broth at 35° C. +/-2° C. The suspension of organisms is centrifuged (5000 rev./min, 4° C.); the pellet is resuspended in fresh medium and incubated for a further 2 h. The pellet is then resuspended in 0.9% NaCl solution and the number of cells is adjusted to about 10^8 CFU/ml using standard curves. The resulting suspension is then diluted with Müller-Hinton broth to about 10^4 CFU/ml(=inoculum). Starting from the inoculum, a determination of the number of organisms is carried out by spiralling out (2×0.1 ml) a suitable dilution stage onto CASO agar plates. Test procedure: Specific concentrations of the potential inhibitors are dispensed into a 96-well microtitre assay plate, wells A1-H1remaining empty. The wells of the microtitre assay plates are inoculated with the adjusted suspension of organisms. Wells A1-H1serve as growth controls. Immediately after inoculation and after incubation of the plates for 24 h and 48 h, they are measured in a plate reader (Biotek EL 311) at 550 nm. From the crude data, the inhibition of bacterial and fungal growth is calculated in percent.

[4] = system: Strept. pneumoniae; test: as above; conditions: Streptococcus pneumoniae; c = 100 μM
Protocol: as §2

[5] = system: Bac. subtilis; test: as above; conditions: Bacillus subtilis; for inhibition at 100 µM: c = 100 μM
Protocol: as §2

[6] = system: Candida albicans; test: Inhibition test (microdilution assay), inhibition of fungal growth; conditions: read-out: Inhibition of bacterial growth: Candida albicans; for inhibition at 100 µM: c = 100 μM
Protocol: as §2

Row | SMILES | GI50 [1] [µM] | GI50 [2] [µM] | inhibition at up to 100 µM [1] [%] | inhibition at up to 100 µM [2] [%] | inhibition at 100 µM [3] [%] | inhibition at 100 µM [4] [%] | inhibition at 100 µM [5] [%] | inhibition at 100 µM [6] [%] | inhibition at 200 µM ([6]; c = 200 μM) [%] | inhibition at 50 µM ([3]; c = 50 μM) [%] | inhibition at 50 µM ([5]; c = 50 μM) [%] | inhibition at 50 µM ([6]; c = 50 μM) [%] | inhibition at 12.5 µM ([3]; c = 12.5 μM) [%] | inhibition at 25 µM ([5]; c = 25 μM) [%]
1 | CC(C)CCn1cncc1-c1c[nH]c2cnc(OCc3ccccc3)cc12 [Example 5] | > 100 | > 100 | 33 | 38 | 100 | 90 | 100 | 0 |  |  |  |  |  | 
2 | COc1ccc2[nH]cc(-c3cncn3CCc3ccc(O)cc3)c2c1 [Example 9] | > 100 | > 100 | 31 | 14 | 25 | 85 | 38 | 0 |  |  |  |  |  | 
3 | O[C@@H]1Cc2ccccc2C1n1cncc1-c1c[nH]c2cnc(OCc3ccccc3)cc12 (stereo partly shown) [Example 13] |  |  |  |  | 90 |  | 90 |  | 90 |  |  |  |  | 
4 | Cc1[nH]c2ccccc2c1-c1cncn1CCNC(C)C [Example 8] | > 100 | > 100 | 10 | 0 | 82 | 0 | 39 | 0 |  |  |  |  |  | 
5 | Fc1ccc(-c2ncn(C3CCCc4ccccc43)c2-c2c[nH]c3cnc(OCc4ccccc4)cc23)cc1 (stereo not shown) [Example 11] |  |  |  |  |  |  |  |  |  | 60 | 80 | 100 |  | 
6 | c1ccc(COc2cc3c(-c4cncn4C4CCCc5ccccc54)c[nH]c3cn2)cc1 (stereo not shown) [Example 1] | > 100 |  | 22 |  | 100 | 100 | 100 | 0 |  |  |  |  |  | 
7 | c1ccc(COc2cc3c(-c4cncn4CCc4c[nH]c5ccccc45)c[nH]c3cn2)cc1 [Example 6] | > 100 | > 100 | 19 | 17 | 85 | 10 | 10 | 0 |  |  |  |  |  | 
8 | c1ccc(COc2cc3c(-c4cncn4C4CCc5ccccc54)c[nH]c3cn2)cc1 (stereo not shown) [Example 12] |  |  |  |  |  |  |  | 60 |  |  |  |  | 80 | 100

Second part, led by results:

Row | GI50 [1] [µM] | GI50 [2] [µM] | SMILES | inhibition at up to 100 µM [1] [%] | inhibition at up to 100 µM [2] [%] | inhibition at 100 µM [3] [%] | inhibition at 100 µM [4] [%] | inhibition at 100 µM [5] [%] | inhibition at 100 µM [6] [%] | inhibition at 200 µM ([6]; c = 200 μM) [%] | inhibition at 50 µM ([3]; c = 50 μM) [%] | inhibition at 50 µM ([5]; c = 50 μM) [%] | inhibition at 50 µM ([6]; c = 50 μM) [%] | inhibition at 12.5 µM ([3]; c = 12.5 μM) [%] | inhibition at 25 µM ([5]; c = 25 μM) [%]
9 | > 100 | > 100 | c1ccc(CN2CCC(n3cncc3-c3c[nH]c4ccccc34)CC2)cc1 [Example 3] | 26 | 48 | 100 | 80 | 100 | 60 |  |  |  |  |  | 
10 | > 100 | > 100 | c1ccc(COc2cc3c(-c4cncn4C4CCN(Cc5ccccc5)CC4)c[nH]c3cn2)cc1 [Example 4] | 41 | 65 | 100 | 90 | 100 | 70 |  |  |  |  |  | 
11 | > 100 | > 100 | Cc1[nH]c2ccccc2c1-c1cncn1C1CCN(Cc2ccccc2)CC1 [Example 2] | 12 | 1 | 100 | 90 | 100 | 60 |  |  |  |  |  | 
12 | > 100 | > 100 | Cc1[nH]c2ccccc2c1-c1cncn1C1CCCc2ccccc21 (stereo not shown) [Example 7] | 0 | 0 | 40 | 0 | 76 | 0 |  |  |  |  |  | 
